Data set [1] addresses Acetylcholinesterase (Electrophorus electricus) (UniProt O42275). Kind of data set: Inhibition of Electric eel AChE at 10 uM using acetylthiocholine iodide as substrate preincubated for 5 mins followed by substrate addition measured after 5 mins by Ellman's method relative to control.
The target of data set [2] is Cholinesterase (Equus caballus) (UniProt P81908). The experiment in a line: Inhibition of equine serum BuChE at 10 uM using butyrylthiocholine iodide as substrate preincubated for 5 mins followed by substrate addition measured after 5 mins by Ellman's method relative to control.
Cholinesterase (Equus caballus), sequence (P81908 whole entry): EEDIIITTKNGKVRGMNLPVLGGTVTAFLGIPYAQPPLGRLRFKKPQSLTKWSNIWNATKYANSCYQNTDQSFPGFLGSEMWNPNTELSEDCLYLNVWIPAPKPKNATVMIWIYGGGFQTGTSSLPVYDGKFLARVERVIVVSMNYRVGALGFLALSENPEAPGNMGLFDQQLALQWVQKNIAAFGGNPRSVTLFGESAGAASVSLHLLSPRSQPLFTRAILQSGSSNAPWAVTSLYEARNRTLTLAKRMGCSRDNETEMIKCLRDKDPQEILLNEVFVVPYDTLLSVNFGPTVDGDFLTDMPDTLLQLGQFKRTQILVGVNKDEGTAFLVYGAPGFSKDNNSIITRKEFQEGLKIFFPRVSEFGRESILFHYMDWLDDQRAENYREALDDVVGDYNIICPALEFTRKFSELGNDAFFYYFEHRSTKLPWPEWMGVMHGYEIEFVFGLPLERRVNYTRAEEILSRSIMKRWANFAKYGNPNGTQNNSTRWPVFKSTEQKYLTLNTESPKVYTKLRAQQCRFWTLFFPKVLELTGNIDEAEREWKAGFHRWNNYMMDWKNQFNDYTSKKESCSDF
Data set [3] concerns the target Acetylcholinesterase (Electrophorus electricus, UniProt O42275).
Description: Inhibition of Electric eel AChE using acetylthiocholine iodide as substrate preincubated for 5 mins followed by substrate addition measured after 5 mins by Ellman's method
The nature of the next data set: in vitro. To be noted: PAMPA.
The target in data set [4] is Acetylcholinesterase (Electrophorus electricus) (UniProt O42275). Kind of data set: Non-competitive inhibition of Electric eel AChE at 0.75 to 3.5 uM using varying levels of acetylthiocholine iodide as substrate preincubated for 5 mins followed by substrate addition measured after 5 mins by Lineweaver-Burk plot analysis.
Acetylcholinesterase (Electrophorus electricus), sequence (O42275 24-633 limits assumed): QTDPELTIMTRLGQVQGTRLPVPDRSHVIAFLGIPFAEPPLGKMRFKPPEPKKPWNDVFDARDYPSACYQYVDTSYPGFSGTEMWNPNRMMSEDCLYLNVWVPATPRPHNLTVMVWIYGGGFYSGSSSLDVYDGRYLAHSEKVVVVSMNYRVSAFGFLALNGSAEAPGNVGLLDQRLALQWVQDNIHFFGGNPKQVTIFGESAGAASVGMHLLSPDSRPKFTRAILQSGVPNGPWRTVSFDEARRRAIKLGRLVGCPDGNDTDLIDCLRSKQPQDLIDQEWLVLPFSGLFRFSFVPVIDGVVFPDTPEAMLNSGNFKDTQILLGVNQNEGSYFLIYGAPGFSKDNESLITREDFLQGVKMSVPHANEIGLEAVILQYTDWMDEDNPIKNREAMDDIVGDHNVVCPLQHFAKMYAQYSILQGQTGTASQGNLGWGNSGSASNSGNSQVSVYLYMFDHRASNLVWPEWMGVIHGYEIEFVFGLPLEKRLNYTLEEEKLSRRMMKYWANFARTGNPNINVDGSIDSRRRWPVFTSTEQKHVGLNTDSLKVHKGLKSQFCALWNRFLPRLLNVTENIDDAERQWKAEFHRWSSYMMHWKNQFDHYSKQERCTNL
The target is the same in data set [5]. Kind of data set: Non-competitive inhibition of Electric eel AChE at 0.75 to 3.5 uM using varying levels of acetylthiocholine iodide as substrate preincubated for 5 mins followed by substrate addition measured after 5 mins by Cornish-Bowden plot analysis.
Data set [6] concerns the target T1, Acetylcholinesterase (Homo sapiens, UniProt P22303). Kind of data set: Inhibition of recombinant human AChE using acetylthiocholine as substrate by Ellman's method.
For data set [7], the target named is T1, Acetylcholinesterase. Kind of data set: Inhibition of recombinant human AChE using acetylthiocholine iodide as substrate preincubated for 5 mins followed by substrate addition measured after 5 mins by Ellman's method.
In data set [8] the target is Amyloid-beta precursor protein (Homo sapiens) (UniProt P05067). The experiment in a line: Inhibition of recombinant human HFIP-pretreated amyloid beta (1 to 42) self-induced aggregation at 10 uM after 24 hrs by thioflavin T-based fluorometric assay relative to control.
Amyloid-beta precursor protein (Homo sapiens), sequence (P05067 whole entry): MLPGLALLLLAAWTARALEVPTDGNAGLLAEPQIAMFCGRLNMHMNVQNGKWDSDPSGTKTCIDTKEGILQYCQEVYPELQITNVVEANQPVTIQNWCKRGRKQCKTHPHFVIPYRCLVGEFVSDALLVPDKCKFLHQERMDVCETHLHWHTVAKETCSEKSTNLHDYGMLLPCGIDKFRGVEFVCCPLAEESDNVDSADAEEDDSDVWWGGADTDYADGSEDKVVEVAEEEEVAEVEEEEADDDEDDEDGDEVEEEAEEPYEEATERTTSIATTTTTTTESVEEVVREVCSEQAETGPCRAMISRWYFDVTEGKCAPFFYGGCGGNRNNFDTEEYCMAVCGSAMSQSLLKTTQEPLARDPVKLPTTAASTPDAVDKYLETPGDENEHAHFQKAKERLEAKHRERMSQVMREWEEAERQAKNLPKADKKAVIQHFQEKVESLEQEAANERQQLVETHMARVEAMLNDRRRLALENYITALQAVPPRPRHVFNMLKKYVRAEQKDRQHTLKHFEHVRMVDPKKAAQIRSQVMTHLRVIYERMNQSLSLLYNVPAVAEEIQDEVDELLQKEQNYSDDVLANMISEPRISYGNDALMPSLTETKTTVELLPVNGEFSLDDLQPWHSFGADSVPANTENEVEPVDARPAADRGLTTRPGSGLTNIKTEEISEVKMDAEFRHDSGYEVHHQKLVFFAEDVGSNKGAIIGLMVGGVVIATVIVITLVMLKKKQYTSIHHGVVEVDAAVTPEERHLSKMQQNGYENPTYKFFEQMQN
The conditions of data set [9]: PAMPA, 6 h, 100 µM.

The structures appear in SMILES notation. Calls of active or inactive are those of the source. The calls are words filed in the database; no cut-off is given here.

Acetylcholinesterase (Electrophorus electricus, UniProt O42275), sequence (O42275 whole entry): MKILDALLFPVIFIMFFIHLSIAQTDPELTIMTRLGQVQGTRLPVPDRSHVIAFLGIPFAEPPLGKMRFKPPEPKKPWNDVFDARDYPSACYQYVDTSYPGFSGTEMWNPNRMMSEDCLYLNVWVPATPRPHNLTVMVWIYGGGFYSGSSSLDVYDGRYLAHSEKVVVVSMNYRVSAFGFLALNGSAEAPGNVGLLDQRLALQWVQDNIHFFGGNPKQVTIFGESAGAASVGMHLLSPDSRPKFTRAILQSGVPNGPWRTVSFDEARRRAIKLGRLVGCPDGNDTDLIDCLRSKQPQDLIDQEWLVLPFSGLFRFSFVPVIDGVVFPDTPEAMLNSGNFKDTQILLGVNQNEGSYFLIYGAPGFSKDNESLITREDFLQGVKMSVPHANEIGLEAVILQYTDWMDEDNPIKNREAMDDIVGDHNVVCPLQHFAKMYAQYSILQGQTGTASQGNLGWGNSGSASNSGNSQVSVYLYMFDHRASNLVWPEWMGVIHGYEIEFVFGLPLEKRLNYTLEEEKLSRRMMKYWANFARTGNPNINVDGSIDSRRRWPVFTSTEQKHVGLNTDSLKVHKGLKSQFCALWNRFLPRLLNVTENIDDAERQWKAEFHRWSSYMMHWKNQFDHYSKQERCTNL
T1 sequence (P22303 whole entry): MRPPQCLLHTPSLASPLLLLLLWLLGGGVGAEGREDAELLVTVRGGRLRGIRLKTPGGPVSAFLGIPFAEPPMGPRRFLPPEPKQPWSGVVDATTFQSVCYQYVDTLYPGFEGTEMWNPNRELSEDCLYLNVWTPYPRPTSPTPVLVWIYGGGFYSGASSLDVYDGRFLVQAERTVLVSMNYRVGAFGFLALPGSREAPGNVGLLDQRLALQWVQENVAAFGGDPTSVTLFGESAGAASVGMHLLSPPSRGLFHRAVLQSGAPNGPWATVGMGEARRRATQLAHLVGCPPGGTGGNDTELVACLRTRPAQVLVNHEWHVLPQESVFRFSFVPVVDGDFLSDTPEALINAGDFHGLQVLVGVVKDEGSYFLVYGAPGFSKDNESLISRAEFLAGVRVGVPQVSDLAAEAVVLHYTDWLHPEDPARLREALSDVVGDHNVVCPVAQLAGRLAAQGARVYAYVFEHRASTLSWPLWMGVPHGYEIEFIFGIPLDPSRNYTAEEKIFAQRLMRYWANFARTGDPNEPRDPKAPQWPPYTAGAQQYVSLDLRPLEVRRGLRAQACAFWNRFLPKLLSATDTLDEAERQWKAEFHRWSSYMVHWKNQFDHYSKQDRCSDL

Regarding `O=C1c2ccccc2S(=O)(=O)N1CCN1CCCC(NCc2cc(F)cc(F)c2)C1` (stereo unspecified), the inhibition in [1] and in data set [2] was less than 10% each time.

As for `O=C1c2ccccc2S(=O)(=O)N1CCN1CCN(Cc2cccc(F)c2)CC1`, the inhibition in data set [1] is greater than 50%; in data set [2] it was less than 10%. Further, the IC50 against Acetylcholinesterase [3] was 2.14 µM.

In the case of `O=C1c2ccccc2S(=O)(=O)N1CCN1CCN(Cc2ccccc2F)CC1`, the values for the inhibition in data set [1] and in [2] were greater than 50% and 16.1%, respectively. Further, the IC50 against Acetylcholinesterase [3] is 17.8 µM.

As to `O=C1c2ccccc2C(=O)N1CCN1CCCN(Cc2cc(F)cc(F)c2)C1`, the inhibition in data set [1] and in data set [2] was less than 10% in each case.

Turning to `O=C1c2ccccc2S(=O)(=O)N1CCN1CCCN(Cc2ccccc2F)C1`, the inhibition in data set [1] amounted to 18.4%; in data set [2] it was 21.6%.

Consider `O=C1c2ccccc2S(=O)(=O)N1CCN1CCN(Cc2cc(F)cc(F)c2)CC1`, for which the figures for the inhibition in data set [1] and in [2] were greater than 50% and 11%, respectively. On Acetylcholinesterase [3], the IC50 was determined as 19.2 µM.

Consider `O=C1c2ccccc2C(=O)N1CCNC1CCCN(Cc2ccccc2)C1` (stereo unspecified), for which the values for the inhibition in [1] and in data set [2] were less than 10% and 16%, respectively.

For `O=C1c2ccccc2S(=O)(=O)N1CCN1CCCN(Cc2cc(F)cc(F)c2)C1`, the figures for the inhibition in data set [1] and in data set [2] were 25.4% and 16.4%, respectively.

For `O=C1c2ccccc2S(=O)(=O)N1CCN1CCN(CCc2ccccc2F)CC1`, the inhibition in [1] is less than 10%; in [2], 11.3%.

Take `O=C1c2ccccc2C(=O)N1CCN1CCCC(NCc2ccccc2F)C1` (stereo unspecified): the inhibition in data set [1] is 15.3%; in data set [2], less than 10%.

`O=C1c2ccccc2S(=O)(=O)N1CCCCN1CCN(Cc2ccccc2)CC1`: the results for the inhibition in [1] and in [2] were greater than 50% and 41.5%, respectively. Besides, the IC50 at Acetylcholinesterase [3] stood at 3.01 µM. In “in vitro”, this compound gave a Papp at 6 h, 100 µM of 10.6 ×10⁻⁶ cm/s.

Take `O=C1c2ccccc2S(=O)(=O)N1CCCN1CCN(Cc2ccccc2)CC1`: the inhibition in [1] turned out to be 34.2%; in [2] it was 11.7%.

With `O=C1c2ccccc2S(=O)(=O)N1CCCCCN1CCN(Cc2ccccc2F)CC1`, the results for the inhibition in data set [1] and in data set [2] were greater than 50% and 21.9%, respectively. Further, on Acetylcholinesterase [3], the IC50 worked out at 7.36 µM. The compound further had a Papp at 6 h, 100 µM in “in vitro” of 9.6 ×10⁻⁶ cm/s.

Turning to `O=C1c2ccccc2C(=O)N1CCNC1CCCN(Cc2ccccc2F)C1` (stereo unspecified), the inhibition in data set [1] was 18.9%; in [2], 28.3%.

As for `O=C1c2ccccc2S(=O)(=O)N1CCN1CCN(Cc2ccccc2)CC1`, the inhibition in data set [1] is greater than 50%; in [2], 22.1%. Also, the inhibition result in [4] and in data set [5] was “Active” each time. Further, it took 0.83 µM to reach half-maximal inhibition against Acetylcholinesterase [3] (IC50). Moreover, the Papp at 6 h, 100 µM in “in vitro” came out at 3.75 ×10⁻⁶ cm/s.

Regarding `O=C1c2ccccc2S(=O)(=O)N1CCCN1CCN(Cc2ccccc2F)CC1`, the inhibition in [1] is less than 10%; in data set [2] it was 12%.

With `O=C1c2ccccc2S(=O)(=O)N1CCCCN1CCN(Cc2ccccc2F)CC1`, the inhibition in [1] was greater than 50%; in data set [2], 29.6%. This compound also yielded an IC50 on Acetylcholinesterase [3] of 4.25 µM. In the data set “in vitro”, this compound displayed a Papp at 6 h, 100 µM of 11 ×10⁻⁶ cm/s.

In the case of `O=C1c2ccccc2C(=O)N1CCN1CCN(Cc2ccccc2F)CC1`, the figures for the inhibition in data set [1] and in data set [2] were 41.8% and less than 10%, respectively.

`O=C1c2ccccc2S(=O)(=O)N1CCCCCCN1CCN(Cc2ccccc2)CC1`: the inhibition in [1] was determined as 41.7%; in [2], 41.8%.

With `O=C1c2ccccc2S(=O)(=O)N1CCN1CCCC(NCc2ccccc2F)C1` (stereo unspecified), the inhibition in [1] and in [2] was less than 10% each time.

Regarding `O=C1c2ccccc2S(=O)(=O)N1CCN1CCN(Cc2ccc(F)cc2)CC1`, the inhibition in [1] is greater than 50%; in data set [2], 47.5%. Moreover, the IC50 against Acetylcholinesterase [3] was 6.28 µM. The compound also came in with a Papp at 6 h, 100 µM in “in vitro” of 3.65 ×10⁻⁶ cm/s.

Regarding `O=C1c2ccccc2S(=O)(=O)N1CCN1CCN(CCc2ccccc2)CC1`, the inhibition in data set [1] is less than 10%; in data set [2], 18.4%.

For the compound `O=C1c2ccccc2C(=O)N1CCN1CCCN(Cc2ccccc2F)C1`, the values for the inhibition in [1] and in data set [2] were less than 10% and 27.8%, respectively.

On to `CCN(Cc1ccccc1)Cc1ccc(-c2cc3cc(OCCNC(=O)/C=C/c4cc(F)cc(F)c4)ccc3oc2=O)cc1`, for which, at Acetylcholinesterase [6], the IC50 was 0.00716 µM.

Turning to `O=C1c2ccccc2S(=O)(=O)N1CCCCCNCc1ccccc1`, at Acetylcholinesterase [7], the IC50 is 0.033 µM. For the same compound, the inhibition in [8] is 22.2%.

`CCN(C)C(=O)Oc1cccc([C@H](C)N(C)C)c1` [RIVASTIGMINE] gave a permeability in data set [9] of 6.6 ×10⁻⁶ cm/s.

Take `O=C1c2ccccc2C(=O)N1CCN1CCCC(NCc2cc(F)cc(F)c2)C1` (stereo unspecified): the inhibition in [1] is greater than 50%; in data set [2], 20%. Moreover, it took 6.47 µM to reach half-maximal inhibition at Acetylcholinesterase [3] (IC50).

Take `O=C1c2ccccc2C(=O)N1CCN1CCN(Cc2cc(F)cc(F)c2)CC1`: the inhibition in data set [1] was less than 10%; in data set [2], 14.2%.

As for `O=C1c2ccccc2C(=O)N1CCN1CCN(CCc2ccccc2F)CC1`, the inhibition in data set [1] was less than 10%; in data set [2], 20.3%.

As for `O=C1c2ccccc2S(=O)(=O)N1CCCCCN1CCN(Cc2ccccc2)CC1`, the inhibition in data set [1] amounted to 43.1%; in [2] it was 30.4%.

On to `O=C1c2ccccc2C(=O)N1CCNC1CCN(Cc2ccccc2)C1` (stereo unspecified), for which the inhibition in data set [1] came out at 25.7%; in data set [2], 21.4%.

As for `O=C1c2ccccc2S(=O)(=O)N1CCCCCCN1CCN(Cc2ccccc2F)CC1`, the inhibition in [1] was greater than 50%; in data set [2], 31.6%. The compound further came in with an IC50 against Acetylcholinesterase [3] of 8.43 µM.

In the case of `O=C1c2ccccc2C(=O)N1CCNC1CCCN(Cc2cc(F)cc(F)c2)C1` (stereo unspecified), the results for the inhibition in data set [1] and in data set [2] were less than 10% and 14.2%, respectively.

For the origin of these results see ChEMBL document CHEMBL3877277, “Design, synthesis and biological evaluation of new phthalimide and saccharin derivatives with alicyclic amines targeting cholinesterases, beta-secretase and amyloid beta aggregation” (Eur J Med Chem, 2017).
